Reference: paper PMC10447463, “Data-mining unveils structure–property–activity correlation of viral infectivity enhancing self-assembling peptides” (Nature Communications, 2023)
Read-outs that look alike come from different tables or passages of the source.

What was measured:
[1] = Zeta-potential measurement; assay type: physicochemical
In short: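 Samples: 1 mg/mL in PBS pH 7.4 (from DMSO), 1 d at RT, then diluted in 1 mM KCl immediately before measurement. Triplicates, two independent runs averaged.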

[2] = β-sheet content by ATR-FT-IR; assay type: physicochemical; conditions: Fig. S7 panel A; β-sheet content by ATR-FT-IR
In short: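 Lyophilized PNF (from 1 mg/mL) scanned 64× on diamond ATR, 2 cm^-1 resolution; β-sheet content per earlier report. CR: spin through 3 kDa MWCO, 16200 x g, 4 °C, 45 min; lyophilize filtrate + unfiltered; DMSO; fluorescamine 20 min RT; ex 365/em 470.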

[3] = assay type: physicochemical; parameters: key to Fibril / Fibril Formation / TEM 2cat / Fibril: 1 = fibrils present; 0 non-fibrillar structures; conditions: for Fibril / Fibril Formation: 1 mg/mL, uranyl acetate stain, qualitative
[4] = Turbidity, derived count rate of scattered light; assay type: physicochemical; conditions: for Count Rate / kcps: derived count rate of scattered light at 633 nm, 173°, from zeta-potential measurement, 0.1 mg/mL in 1 mM KCl after 1 d at 1 mg/mL in PBS, turbidity / microscopic aggregation, mean of triplicate
In short: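 One-day room-temperature aggregation at 1 mg/mL in PBS (pH 7.4) preceded measurement; samples then went into 1 mM KCl. Triplicates per sample, two independent experiments averaged.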

[5] = zeta potential of peptide assemblies
[6] = zeta-potential of peptide, source data of Figure 2C
[7] = zeta-potential of the peptide assemblies, mean, Figure 3A source data
[8] = FigS12 panel A, fibril category by TEM
[9] = TEM, 1 = fibrils present, 0 = non-fibrillar
[10] = TEM, 1 = fibrils present, 0 = non-fibrillar structures
[11] = Log10 of derived count rate of scattered light (turbidity)
[12] = log10 of derived count rate of scattered light (turbidity)
[13] = turbidity, Log10 of derived count rate of scattered light, Figure 3A source data
[14] = turbidity, log10 of derived count rate of scattered light
[15] = logarithm of count rate in kcps
[16] = category: fibrils present or non-fibrillar

Row | Substance | Zeta-Potential / mV [1, 6] | Zeta-Potential / mV [1, 7] | b -sheet / % [2] | TEM 2cat ([3]; Fig S10 panel D) | TEM 2cat [3, 8] | Fibril ([3]; FigS12 panel B, TEM) | Fibril / Fibril Formation ([3]; TEM) | Fibril [3, 9] | Fibril [3, 10] | Log10 Count Rate [4, 11] | Count Rate / kcps [4] | Log10 Count Rate [4, 13] | Zeta-Pot. [1] | Fibril ([3]; Fig S10 panel E) | Log10 Count Rate [4, 14] | TEM 2cat [3, 16] | further results
1 | CEFEFQF | -10.825 mV | -13.7 mV | 53% | 1 | 1 | 1 | 1 | 1 | 1 | 2.565 | 367 kcps | 2.565 | – | – | – | – | Zeta-Pot. [1, 5]: -13.7; Log10 Count Rate [4, 12]: 2.565
2 | CEIEIQI | -24.43 mV | -26.1 mV | 45% | 1 | 1 | 1 | 1 | 1 | 1 | 1.716 | 52 kcps | 1.716 | -26.1 | 1 | 1.716 | – | –
3 | CETMYDKILKNLSRSR | -1.487 mV | 0.41 mV | 62.1014% | 0 | 0 | 0 | 0 | 0 | 0 | 3.041 | 1099 kcps | 3.041 | 0.41 | 0 | 3.041 | – | –
4 | CHLHLQL | -10.37 mV | -12.27 mV | 49.52% | 0 | 0 | 0 | 0 | 0 | 0 | 3.062 | 1155 kcps | 3.062 | -12.27 | 0 | 3.062 | – | Log10 Count Rate [4, 15]: 3.062
5 | CKFC | -2.077 mV | -19.89 mV | 38.87% | 0 | 0 | 0 | 0 | 0 | 0 | 2.371 | 235 kcps | 2.371 | -19.89 | 0 | 2.371 | – | –
6 | CKFKFQF | 17.4 mV | 19.73 mV | 47.43% | 1 | – | – | 1 | 1 | 1 | 3.725 | 5303 kcps | 3.725 | 19.73 | 1 | 3.725 | 1 | Zeta pot. / mV ([1]; zeta potential of the peptide assemblies): 19.73 mV; Count Rate ([4]; T0, mean of n = 3): 719.1 kcps; Count Rate ([4]; T0, replicate 2): 718.1 kcps; Count Rate ([4]; T0, replicate 3): 875.1 kcps; Count Rate ([4]; T2m, mean of n = 3): 801.2 kcps; Count Rate ([4]; T2m, replicate 1): 2097 kcps; Count Rate ([4]; T2m, replicate 2): 115.2 kcps; Count Rate ([4]; T2m, replicate 3): 191.5 kcps; Count Rate ([4]; T1d, mean of n = 3): 1387.9 kcps; Count Rate ([4]; T1d, replicate 1): 43.1 kcps; Count Rate ([4]; T1d, replicate 2): 2192.2 kcps; Count Rate ([4]; T1d, replicate 3): 1928.4 kcps; Log10 Count Rate [4, 15]: 3.725
7 | CKFKFQFNM | 14.97 mV | 15.13 mV | 41% | 1 | – | – | 1 | 1 | 1 | 3.347 | 2224 kcps | 3.347 | 15.13 | 1 | 3.347 | 1 | Log10 Count Rate [4, 15]: 3.347
8 | CKFKFQFNMW | 17.67 mV | 18.4 mV | 47.7253% | 1 | – | – | 1 | 1 | 1 | 3.613 | 4107 kcps | 3.613 | – | – | – | 1 | Zeta-Pot. [1, 5]: 18.4; Log10 Count Rate [4, 12]: 3.613
9 | CKFKFQFNMWQ | 15.58 mV | 17.03 mV | 47.05% | 1 | – | – | 1 | 1 | 1 | 2.154 | 143 kcps | 2.154 | 17.03 | 1 | 2.154 | 1 | –
10 | CKFQC | -5.253 mV | -17.38 mV | 43.86% | 0 | 0 | 0 | 0 | 0 | 0 | 2.115 | 130 kcps | 2.115 | -17.38 | 0 | 2.115 | – | –
11 | CKIKIQIII | 16.2 mV | 16.2 mV | 36.7% | 1 | – | – | 1 | 1 | 1 | 3.695 | 4953 kcps | 3.695 | 16.2 | – | 3.695 | 1 | –
12 | CKIKQIINM | 13.87 mV | 12.9 mV | 46% | 1 | – | – | 1 | 1 | 1 | 3.957 | 9058 kcps | 3.957 | 12.9 | 1 | 3.957 | 1 | –
13 | CKWKWQW | 16.02 mV | 14.7 mV | 34.2% | 1 | – | – | 1 | 1 | 1 | 3.876 | 7511 kcps | 3.876 | – | – | – | 1 | Zeta-Pot. [1, 5]: 14.7; Log10 Count Rate [4, 12]: 3.876; Log10 Count Rate [4, 15]: 3.876
14 | CKYKYQY | 3.282 mV | 1.49 mV | 49.12% | 0 | 0 | 0 | 0 | 0 | 0 | 3.026 | 1061 kcps | 3.026 | – | – | – | – | Zeta-Pot. [1, 5]: 1.49; Log10 Count Rate [4, 12]: 3.026
15 | CRFRFQF | 6.218 mV | -2.1 mV | 39.77% | 1 | – | – | 1 | 1 | 1 | 2.592 | 391 kcps | 2.592 | -2.097 | 1 | 2.592 | 1 | –
16 | CRFRVPF | 1.957 mV | 4.41 mV | 11.43% | 0 | 0 | 0 | 0 | 0 | 0 | 1.869 | 74 kcps | 1.869 | 4.413 | 0 | 1.869 | – | –
17 | EFEFQF | -14.88 mV | -24.5 mV | 44.93% | 0 | 0 | 0 | 0 | 0 | 0 | 2.608 | 405 kcps | 2.608 | – | – | – | – | Zeta-Pot. [1, 5]: -24.5; Log10 Count Rate [4, 12]: 2.608
